Consider 25 compounds from patent EP0234499A2, “Antifungal azolylpropanol derivatives” (SHIONOGI SEIYAKU KABUSHIKI KAISHA, priority 1986, dated 1987).

Assay [1] concerns Candida albicans KE-2. The experiment in a line: Inhibition test against pseudomycelium formation of Candida albicans. Type of assay: cell-based. Conditions: minimum effective concentration preventing typical pseudomycelium formation, Eagle-MEM medium with 20 % calf serum, 1 x 10^6 yeast cells/ml, 18 hours at 37 °C, two fold dilution series; for minimal effective concentration: Candida albicans, KE2, read-out: Inhibition for Pseudomyselium Formation of Candida albicans (MEC, μg/ml). Here is the method: Inhibition test against psendomycelium formation of Candida albicans Candida albicans KE-2 was inoculated to Eagle-MEM medium (Nissan 2 made by Nissui Seiyaku, Ltd.) supplemented with 20 % calf serum so that its final inoculum of yeast cell might be 1 x 10^6 yeast cells per milliliter. The test compounds are added thereon in two fold dilution series. After incubation for 18 hours at 37 °C, the fungal growth in each drug concentration is smeared and fixed on a slide glass, and its morphological feature on the presence or absence of the psendomycelium formation is examined by a microscope following Giemsa staining. Minimum effective concentration (MEC, µg/ml) is defined as the lowest concentration of the compound which prevented typical pseudo- mycelium formation.

Assay [2] concerns Candida albicans KE-2. The assay is described as follows: Therapeutic effect against experimental candidiasis in mice. In kind it is in vivo, Jcl-ICR female mice. Conditions: mouse survival ratio on the 5th day after infection, 50 mg/kg orally three times (0, 4 and 24 hours after infection), i.v. infection with 2 x 10^6 cells, eight mice per group; for responders at 50 mg/kg: Candida albicans, KE2, po, 120 h; for Therapeutic Effect (%): 50 mg/kg. The method, then: Therapeutic effect against experimental candidiasis in mice After Candida albicans KE-2 is incubated on Sabouraud's glucose agar at 28 °C for 48 hr., it is suspended in Sabouraud's glucose broth and the cells (2 ^x 10^6) are injected to a tail vein of Jcl-ICR female mice (4 weeks age; weight : 18 - 20 g). A suspension of the test compound in 2 % gum arabic is orally administered three times, immediately after infection of the yeast ( 0 hour), after 4 hours and after 24 hours, as a dosage of 50 mg/kg. Non-treated group is used as control. Eight mice per group are used in the control group and the treated group. All the mice in the control group died within 48 hours after infection. Therapeutic effect of the test compound is judged by mouse survival ratio on the 5th day after infection.

Each structure is given as a SMILES string.

Consider `COC(n1cccn1)C(O)(Cn1cncn1)c1ccc(F)cc1F` (single isomer, unassigned) [Compound 49], for which the minimal effective concentration in the assay with Candida albicans KE-2 [1] is 0.31 µg/mL. In the assay with Candida albicans KE-2 [2], the responders at 50 mg/kg was found to be 75%.
As for `COC(n1cccn1)C(O)(Cn1ccnc1)c1ccc(F)cc1` (single isomer, unassigned) [Compound 31], the “Inhibition for Pseudomyselium Formation of Candida albicans (MEC, μg/ml)” value (“Inhibition for Pseudomyselium Formation” for short) in the assay with Candida albicans KE-2 [1] was found to be 1.25 µg/mL. Further, in the assay on Candida albicans KE-2 [2], the “Therapeutic Effect (%)” value was 37.5%.
Regarding `COC(n1ccnc1C)C(O)(Cn1cncn1)c1ccc(Cl)cc1` (single isomer, unassigned) [Compound 45], in the assay on Candida albicans KE-2 [2], the responders at 50 mg/kg came to 37.5%.
On the same count and under the same terms, next, `COC(n1cncn1)C(O)(Cn1ccnc1)c1ccc(F)cc1F` (single isomer, unassigned) [Compound 40]: 37.5%; `COC(n1cccn1)C(O)(Cn1cncn1)c1ccc(F)cc1` (single isomer, unassigned) [Compound 27]: 25%.
Turning to `COC(n1cncn1)C(O)(Cn1cncn1)c1ccc(F)cc1F` (single isomer, unassigned) [Compound 47, 2-(2,4-Difluorophenyl)-1-methoxy-1,3-bis(1H-1,2,4-tri-azol-1-yl)-2-propanol], in the assay on Candida albicans KE-2 [1], the “Inhibition for Pseudomyselium Formation” value was 0.31 µg/mL.
As for `COC(n1cncn1)C(O)(Cn1ccnc1)c1ccc(Cl)cc1Cl` (single isomer, unassigned) [Compound 44], the responders at 50 mg/kg with Candida albicans KE-2 [2] is 12.5%.
With `COC(n1cccn1)C(O)(Cn1ccnc1)c1ccc(F)cc1F` (single isomer, unassigned) [Compound 30], the “Inhibition for Pseudomyselium Formation” value in the assay with Candida albicans KE-2 [1] is 0.31 µg/mL. Also, the “Therapeutic Effect (%)” value with Candida albicans KE-2 [2] is recorded as 50.0%.
In the case of `COC(n1cccn1)C(O)(Cn1cccn1)c1ccc(Cl)cc1` (single isomer, unassigned) [Compound 38], in the assay on Candida albicans KE-2 [1], the minimal effective concentration came out at 0.31 µg/mL. The responders at 50 mg/kg with Candida albicans KE-2 [2] amounted to 25%.
In the case of `COC(n1cccn1)C(O)(Cn1ccnc1)c1ccc(F)cc1F` (single isomer, unassigned) [Compound 29], in the assay on Candida albicans KE-2 [1], the minimal effective concentration was found to be 0.31 µg/mL. In addition, the “Therapeutic Effect (%)” value in the assay on Candida albicans KE-2 [2] is listed as 100.0%.
Turning to `CCOC(n1cncn1)C(O)(Cn1cncn1)c1ccc(F)cc1` (single isomer, unassigned) [Compound 33], the minimal effective concentration with Candida albicans KE-2 [1] turned out to be 1.25 µg/mL.
With `COC(n1cnc(C)c1)C(O)(Cn1cncn1)c1ccc(Cl)cc1` (single isomer, unassigned) [Compound 46], the minimal effective concentration with Candida albicans KE-2 [1] was 0.08 µg/mL. Also, the responders at 50 mg/kg with Candida albicans KE-2 [2] turned out to be 12.5%.
In the case of `COC(n1cncn1)C(O)(Cn1cncn1)c1ccc(F)cc1` (single isomer, unassigned) [Compound 24], the minimal effective concentration with Candida albicans KE-2 [1] came out at 1.25 µg/mL. The responders at 50 mg/kg in the assay on Candida albicans KE-2 [2] came out at 87.5%.
Consider `CCOC(n1cncn1)C(O)(Cn1cncn1)c1ccc(Cl)cc1Cl` (centres unmarked) [Compound 54], for which the responders at 50 mg/kg in the assay with Candida albicans KE-2 [2] was found to be 87.5%.
On to `COC(n1ccnc1)C(O)(Cn1cncn1)c1ccc(Cl)cc1` (single isomer, unassigned) [Compound 23], for which the minimal effective concentration with Candida albicans KE-2 [1] came to 0.63 µg/mL.
On the same count and under the same terms, next, `COC(n1cncn1)C(O)(Cn1cncn1)c1ccccc1F` (single isomer, unassigned) [Compound 51]: 0.63 µg/mL.
On to `COC(n1cncn1)C(O)(Cn1cncn1)c1ccc(Cl)cc1Cl` (single isomer, unassigned) [Compound 25], for which, in the assay with Candida albicans KE-2 [1], the minimal effective concentration worked out at 0.31 µg/mL. Besides, the responders at 50 mg/kg in the assay on Candida albicans KE-2 [2] stood at 100%.
For `COC(n1cccn1)C(O)(Cn1ccnc1)c1ccc(Cl)cc1` (single isomer, unassigned) [Compound 36], the “Inhibition for Pseudomyselium Formation” value with Candida albicans KE-2 [1] amounted to 0.08 µg/mL. In the assay on Candida albicans KE-2 [2], the “Therapeutic Effect (%)” value was 37.5%.
Turning to `COC(n1cccn1)C(O)(Cn1cncn1)c1ccc(Cl)cc1` (single isomer, unassigned) [Compound 37], the “Inhibition for Pseudomyselium Formation” value in the assay on Candida albicans KE-2 [1] worked out at 0.63 µg/mL. Besides, the responders at 50 mg/kg in the assay with Candida albicans KE-2 [2] is 62.5%.
In the case of `OC(Cn1cncn1)(c1ccc(F)cc1)C(OCC(F)(F)F)n1cncn1` (single isomer, unassigned) [Compound 32], in the assay with Candida albicans KE-2 [2], the responders at 50 mg/kg was 50%.
For the compound `COC(n1cccn1)C(O)(Cn1cncn1)c1ccc(Cl)cc1` (single isomer, unassigned) [Compound 34], in the assay with Candida albicans KE-2 [1], the minimal effective concentration was determined as 0.63 µg/mL.
Consider `COC(n1cccn1)C(O)(Cn1ccnc1)c1ccc(Cl)cc1` (single isomer, unassigned) [Compound 35], for which, in the assay with Candida albicans KE-2 [1], the minimal effective concentration was determined as 0.04 µg/mL. Further, the responders at 50 mg/kg in the assay with Candida albicans KE-2 [2] is 25%.
Regarding `COC(n1cncn1)C(O)(Cn1cncn1)c1ccc(Cl)cc1` (single isomer, unassigned) [Compound 26], the responders at 50 mg/kg in the assay with Candida albicans KE-2 [2] was 100%.
Turning to `COC(n1cccn1)C(O)(Cn1ccnc1)c1ccc(F)cc1` (single isomer, unassigned) [Compound 28], the “Inhibition for Pseudomyselium Formation” value with Candida albicans KE-2 [1] is 0.08 µg/mL. For the same compound, the “Therapeutic Effect (%)” value in the assay on Candida albicans KE-2 [2] is listed as 62.5%.
For `COC(n1cncn1)C(O)(Cn1cncn1)c1ccc(F)cc1F` (single isomer, unassigned) [Compound 21, 2-(2,4-Difluorophenyl)-1-methoxy-1,3-bis(1H-1,2,4-tri-azol-1-yl)-2-propanol], the “Inhibition for Pseudomyselium Formation” value in the assay on Candida albicans KE-2 [1] worked out at 0.63 µg/mL. Also, the responders at 50 mg/kg in the assay on Candida albicans KE-2 [2] worked out at 87.5%.
